Assay results from patent EP1000062B1, “TRICYCLIC VASOPRESSIN AGONISTS” (Wyeth, priority 1997, dated 1999).

Tested on: Vasopressin V2
Assay: Vasopressin V2 agonist effects of test compounds in normal conscious water-loaded rats
Assay type: in vivo
Settings: Sprague-Dawley (CD) rats, oral 10 mg/kg, urine collected for four hours; for Osmolality (% Increase): change in osmolality as percent of control; for Urine Volume (% decrease): vs. control
Protocol: Vasopressin V2 Agonist Effects of Test Compounds in Normal Conscious Water-Loaded Rats:
On the day of test, rats were placed individually into metabolic cages equipped with devices to separate the feces from the urine and containers for collection of urine. Test compound or reference agent was given at an oral dose of 10 mg/kg in a volume of 10 ml /kg. […] Thirty minutes after dosing the test compound, rats were gavaged with water at 30 ml /kg into the stomach using a feeding needle. During the test, rats were not provided with water or food. Urine was collected for four hours after dosing of the test compound. At the end of four hours, urine volume was measured. […] Determinations of Na^+, K^+ and Cl^- ion were carried out using ion specific electrodes in a Beckman SYNCHRON EL-ISE Electrolyte System analyzer. […] In the screening test, two rats were used for each compound. If the difference in the urine volume of the two rats was greater than 50%, a third rat was used.

Structure (SMILES) | Osmolality (% Increase) | Urine Volume (% decrease)
Cc1cnn(-c2ccc(C(=O)N3Cc4cccn4Cc4ccccc43)c(C(F)(F)F)c2)c1 [Example 3, [4-(4-Methyl-pyrazol-1-yl)-2-trifluoromethyl-phenyl]-(5H,11H-pyrrolo[2,1-c][1,4]benzodiazepin-10-yl)-methanone] | 240% | 58%
O=C(c1ccc(-n2cccn2)cc1C(F)(F)F)N1Cc2cccn2Cc2ccccc21 [Example 4, (4-Pyrazol-1-yl-2-trifluoromethyl-phenyl)-(5H,11H-pyrrolo[2,1-c][1,4]benzodiazepin-10-yl)-methanone] | 225% | 57%
O=C(c1ccc(-n2ccc(C3CC3)n2)cc1C(F)(F)F)N1Cc2cccn2Cc2ccccc21 [Example 5, [4-(3-Cyclopropyl-pyrazol-1-yl)-2-trifluoromethy-phenyl]-(5H,11H-pyrrolo[2,1-c][1,4]benzodiazepin-10-yl)-methanone] | 231% | 56%
Cc1cn(-c2ccc(C(=O)N3Cc4cccn4Cc4ccccc43)c(C(F)(F)F)c2)cn1 [Example 6, [4-(4-Methyl-imidazol-1-yl)-2-trifluoromethyl-phenyl]-(5H,11H-pyrrolo[2,1-c][1,4]benzodiazepin-10-yl)-methanone] | 270% | 58%
O=C(c1ccc(-n2cncn2)cc1C(F)(F)F)N1Cc2cccn2Cc2ccccc21 [Example 7, (5H,11H-Pyrrolo[2,1-c][1,4]benzodiazepin-10-yl)-(4-[1,2,4]triazol-1-yl-2-trifluoromethylphenyl)-methanone] | 137% | 13%
Cc1ccn(-c2ccc(C(=O)N3Cc4cccn4Cc4ccccc43)c(Cl)c2)n1 [Example 9A] | 325% | 70%
Cc1ccnn1-c1ccc(C(=O)N2Cc3cccn3Cc3ccccc32)c(Cl)c1 [Example 9B] | 168% | 21%
Cc1cnn(-c2ccc(C(=O)N3Cc4cccn4Cc4ccccc43)c(Cl)c2)c1 [Example 11] | 285% | 70%
Cc1cn(-c2ccc(C(=O)N3Cc4cccn4Cc4ccccc43)c(Cl)c2)cn1 [Example 12, [2-Chloro-4-(4-methyl-imidazol-1-yl)-phenyl]-(5H,11H-pyrrolo[2,1-c][1,4]benzodiazepin-10-yl)-methanone] | 330% | 69%
O=C(c1ccc(-n2ccc(C(F)(F)F)n2)cc1Cl)N1Cc2cccn2Cc2ccccc21 [Example 13, [2-Chloro-4-(3-trifluoromethyl-pyrazol-1-yl)-phenyl]-(5H,11H-pyrrolo[2,1-c][1,4]benzodiazepin-10-yl)-methanone] | 229% | 50%
O=C(c1ccc(-n2cncn2)cc1Cl)N1Cc2cccn2Cc2ccccc21 [Example 14, [2-Chloro-4-(1,2,4-triazol-1-yl)-phenyl]-(5H,11H-pyrrolo[2,1-c][1,4]benzodiazepin-10-yl)-methanone] | 406% | 86%
O=C(c1ccc(-n2cccc2)cc1Cl)N1Cc2cccn2Cc2ccccc21 [Example 15, (2-Chloro-4-pyrrol-1-yl-phenyl)-(5H,11H-pyrrolo[2,1-c][1,4]benzodiazepin-10-yl)-methanone] | 38% | 47%
O=C(c1ccc(-n2cccn2)cc1Cl)N1Cc2cccn2Cc2ccccc21 [Example 16, (2-Chloro-4-pyrazol-1-yl-phenyl)(5H,11H-Pyrrolo[2,1-c][1,4]benzodiazepin-10-yl)-methanone] | 400% | 88%
Cc1ccn(-c2ccc(C(=O)N3Cc4ccc(C)n4Cc4ccccc43)c(Cl)c2)n1 [Example 18, [2-Chloro-4-(3-methylpyrazol-1-yl)-phenyl]-(3-methyl-5H,11H-pyrrolo[2,1-c][1,4]benzodiazepin-10-yl)-methanone] | 214% | 52%
Cc1cnn(-c2ncc(C(=O)N3Cc4cccn4Cc4ccccc43)c(C(F)(F)F)n2)c1 [Example 21, [2-(4-Methyl-pyrazol-1-yl)-4-trifluoromethyl-pyrimidin-5-yl]-(5H,11H-pyrrolo[2,1-c][1,4]benzodiazepin-10-yl)-methanone] | 181% | 49%
CC(=O)c1ccc(C(=O)N2Cc3cccn3Cc3ccccc32)cc1 [Example 22, 1-[4-(5H,11H-Pyrrolo[2,1-c][1,4]benzodiazepine-10-carbonyl)-phenyl]-ethanone] | 322% | 80%
O=C(c1ccc(-c2cc[nH]n2)cc1)N1Cc2cccn2Cc2ccccc21 [Example 24, [4-(1H-Pyrazol-3-yl)-phenyl]-(5H,11H-pyrrolo[2,1-c][1,4]benzodiazepin-10-yl)-methanone] | 159% | 47%
Cn1ccc(-c2ccc(C(=O)N3Cc4cccn4Cc4ccccc43)cc2)n1 [Example 25, [4-(1-Methyl-1H-pyrazolyl-3-yl)-phenyl]-(5H,11H-pyrrolo[2,1-c][1,4]-benzodiazepin-10-yl)-methanone] | 979% | 87%
CCn1ccc(-c2ccc(C(=O)N3Cc4cccn4Cc4ccccc43)cc2)n1 [Example 26, [4-(1-Ethyl-1H-pyrazol-3-yl)-phenyl]-(5H,11H-pyrrolo[2,1-c][1,4]-benzodiazepin-10-yl)-methanone] | 279% | 54%
CCCn1ccc(-c2ccc(C(=O)N3Cc4cccn4Cc4ccccc43)cc2)n1 [Example 27, [4-(1-Propyl-1H-pyrazol-3-yl)-phenyl]-(5H,11H-pyrrolo[2,1-c][1,4]-benzodiazepin-10-yl)-methanone] | 183% | 76%
CCCCn1ccc(-c2ccc(C(=O)N3Cc4cccn4Cc4ccccc43)cc2)n1 [Example 28, [4-(1-Butyl-1H-pyrazol-3-yl)-phenyl]-(5H,11H-pyrrolo[2,1-c][1,4]-benzodiazepin-10-yl)-methanone] | 37% | 75%
COCn1ccc(-c2ccc(C(=O)N3Cc4cccn4Cc4ccccc43)cc2)n1 [Example 29, [4-(1-methoxymethyl-1H-pyrazol-3-yl)-phenyl]-(5H,11H-pyrrolo[2,1-c][1,4]-benzodiazepin-10-yl)-methanone] | 305% | 66%
CCC(=O)n1ccc(-c2ccc(C(=O)N3Cc4cccn4Cc4ccccc43)cc2)n1 [Example 31, 1-{3-[4-(5H,11H-Pyrrolo[2,1-c][1,4]benzodiazepine-10-carbonyl)-phenyl]-pyrazol-1-yl}-propan-1-one] | 298% | 72%
O=C(c1ccc(-c2ccn(C(=O)C3CC3)n2)cc1)N1Cc2cccn2Cc2ccccc21 [Example 32, [4-(1-Cyclopropanecarbonyl-1H-pyrazol-3-yl)-phenyl]-(5H,11H-pyrrolo[2,1-c][1,4]benzodiazepin-10-yl)-methanone] | 373% | 77%
CCCC(=O)n1ccc(-c2ccc(C(=O)N3Cc4cccn4Cc4ccccc43)cc2)n1 [Example 33, 1-{3-[4-(5H,11H-Pyrrolo[2,1-c][1,4]benzodiazepine-10-carbonyl)-phenyl]-pyrazol-1-yl}-butan-1-one] | 362% | 68%
Cc1ccc(F)cc1C(=O)n1ccc(-c2ccc(C(=O)N3Cc4cccn4Cc4ccccc43)cc2)n1 [Example 35, {4-[1-(5-Fluoro-2-methyl-benzoyl)-1H-pyrazol-3-yl]-phenyl}-(5H,11H-pyrrolo[2,1-c][1,4]benzodiazepin-10-yl)-methanone] | 308% | 63%
O=C(c1ccc(-c2ccn(C(=O)c3ccc(F)cc3Cl)n2)cc1)N1Cc2cccn2Cc2ccccc21 [Example 37, {4-[1-(2-Chloro-4-fluoro-benzoyl)-1H-pyrazol-3-yl]-phenyl}-(5H,11H-pyrrolo[2,1-c][1,4]benzodiazepin-10-yl]methanone] | 370% | 71%
O=C(c1ccc(-c2ccn(C(=O)Cc3ccc(Cl)cc3Cl)n2)cc1)N1Cc2cccn2Cc2ccccc21 [Example 39, 2-(2,4-Dichloro-phenyl)-1-{3-[4-(5H,11H-pyrrolo[2,1-c][1,4]benzodiazepine-10-carbonyl)-phenyl]-pyrazol-1-yl}-ethanone] | 253% | 69%
O=C(c1ccc(-c2ccn(C(=O)c3ccccc3-c3ccccc3)n2)cc1)N1Cc2cccn2Cc2ccccc21 [Example 40, {4-[1-(Biphenyl-2-carbonyl)-1H-pyrazol-3-yl]-phenyl}-(5H,11H-pyrrolo[2,1-c][1,4]benzodiazepin-10-yl)-methanone] | 183% | 46%
O=C(c1ccc(-c2ccn(C(=O)c3ccccc3-c3ccc(C(F)(F)F)cc3)n2)cc1)N1Cc2cccn2Cc2ccccc21 [Example 41, {4-[1-(4'-Trifluoromethyl-biphenyl-2-carbonyl)-1H-pyrazol-3-yl]-phenyl}-(5H,11H-pyrrolo[2,1-c][1,4]benzodiazepin-10-yl)-methanone] | 240% | 69%
